Results published in US12258574B2, “Methods and compositions for transducing lymphocytes and regulating the activity thereof” (Exuma Biotech Corp., priority 2016, dated 2025).
Structures can show the parent of a compound that is named as a salt.

How the values were obtained:
CHO-Target 1 cells = experiment: pH shift cytotoxicity assay / HCl switch RTCA killing assay (xCELLigence); type: cell-based
Description: The cytotoxic activity of transduced T cells before and after pH change by addition of NaHCO3 or NaOH was measured using the xCELLigence System. Briefly, one day before the experiment, target cells (CHO cells stably transfected with a construct to express Target 1 on the cell surface (CHO-Target 1 cells)), were seeded into a 96-well E-plate (ACEA; San Diego, CA) at 10,000 cells/well with X-VIVO 15 media containing 40 mM HEPES and 40 mM PIPES, pH 6.7. Cryopreserved effector cells previously transduced with either lentiviral particles containing the nucleic acid encoding T1B or C1 (T1BVP and C1VP, respectively) produced as discussed above, were thawed and cultured for two days in X-VIVO 15 media containing 100 IU/mL of IL-2 (R&D Systems, Minneapolis, MN). On the day of the experiment, cells transduced with T1BVP or C1VP were washed and resuspended in X-VIVO 15 media containing 40 mM HEPES and 40 mM PIPES, pH 6.7 and then added into the experimental wells at effector cell/target cell ratios (E/T) of 1:1.
Impedance readings measured on the xCELLigence System (ACEA) were taken every 5 minutes and reported as the Cell Index (CI) to quantitate cell confluency as a measure of cell proliferation/cell lysis. Approximately 3 hours after effector cell addition, 8 μl of 7.5% NaHCO3 or 14 μl of 0.5 M NaOH was added into the wells with X-VIVO 15 media containing 40 mM HEPES and 40 mM PIPES, pH 6.7 to increase the pH from 6.7 to 7.4. Impedance readings were continued for approximately 20 hours after effector cell addition. Percentage of specific cytolysis was calculated as follows ((CI Target+C1VP transduced effector T cells)−(CI Target+T1BVP transduced effector T cells))/(CI Target+C1VP transduced effector T cells)×100.
The cytotoxic activity of transduced T cells before and after pH change by addition of HCl was measured using the xCELLigence System. Briefly, one day before the experiment, CHO-Target 1 cells were seeded into a 96 well E-plate at 10,000 cells/well with X-VIVO 15 media containing 40 mM HEPES and 40 mM PIPES, pH 7.4. Cryopreserved effector cells previously transduced with either C1VP or T1BVP, were thawed and cultured for two days in X-VIVO 15 media containing 100 IU/mL of IL-2. On the day of the experiment, cells transduced with T1BVP or C1VP were washed and resuspended in X-VIVO 15 media containing 40 mM HEPES and 40 mM PIPES, pH 7.4 and then added into experimental wells at effector cell/target cell ratios (E/T) of 1:1.
Impedance readings were taken every 5 minutes and reported as the Cell Index (CI). […] Impedance readings were continued for approximately 20 hours after effector cell addition. Percentage of specific cytolysis was calculated as follows ((CI Target+C1VP transduced effector T cells)−(CI Target+T1BVP transduced effector T cells))/(CI Target C1VP)×100.

deoxyguanosine switch = experiment: Tests of natural deoxyguanosine riboswitch with nucleoside analogues; type: binding
Text: This example provides a method to screen libraries based on natural structural riboswitches that bind guanosine and deoxyguanosine. These riboswitches were used as scaffolds to develop biased libraries for the selection of aptamers that bind specifically to a ligand nucleoside analogue. Previously, isothermal titration calorimetry has been used to show these natural riboswitches bind to their native ligands. […] The single-stranded regions of the riboswitch were targeted for mutation and variant sequences that specifically respond to acyclovir or penciclovir were selected for.

[1] = Deep sequencing and sequence family analysis of parallel assessment populations, acyclovir candidates; type: binding; details: for Enrichment rate: ratio between final positive and penultimate positive population; for presence in the negative population: sequenced final generation library responding to 1X selection buffer; for presence in the counter-targets population: sequenced final generation library responding to counter-targets
Text: The Illumina MiSeq system (San Diego, CA) was implemented to sequence the aptamer libraries after parallel assessment using a single-end read technique. Deep sequencing and subsequent data analysis reduces the large number of screening rounds traditional SELEX requires, which may introduce error and bias due to the screening process (Schütze et al., 2011). Five samples were sequenced: the final generation library that responded to acyclovir, the final generation library that responded to the counter-targets, the final generation library that responded to 1× selection buffer (negative condition), the penultimate generation library that responded to acyclovir, and the final generation library that responded to the additional target of interest, penciclovir. From these sets of data, sequence families were constructed at 95% homology (sequence similarity considering mutations, deletions, and insertion) for aptamer candidate identification. There were 1,711,535 raw sequences (124,600 unique sequences) from the library that responded to acyclovir and 2,074,832 raw sequences (110,149 unique sequences) from the library that responded to penciclovir.
Sequence family construction focused primarily on sequence similarity. This means that a sequence's frequency in the positive target population was factored in, but greater emphasis was placed on the degree of variation between similar sequences, with 95% homology being the minimum requirement (100% match over the entire sequence is not necessary to join a family, up to 2 bases can be mismatched, inserted, or deleted). One would therefore expect families with the greatest number of members to rank highly as aptamer candidates. […] Under these conditions, several candidate families appeared to be strong candidates for binding acyclovir (Table 2) and penciclovir.

[2] = Qualitative PAGE assessment of selected aptamers after graphene oxide selection; type: binding; details: 0.5 mM MgCl2, 37° C., 0.5 μM aptamer, 1 μM target or counter-targets
Description: Qualitative PAGE assessment of selected aptamers was performed. Individually synthesized and transcribed aptamers were subjected to selection on Graphene Oxide (GrO) under physiological Mg++ (0.5 mM) and elution with either acyclovir (+) or counter-targets (×). The specifically eluted aptamer fractions for each sample were subjected to PAGE for analysis.
Final library concentration was 0.5 μM, target/counter-targets concentration was 1 μM (incubation volume was 200 μl).
After target/counter-target incubation, 250 μg of GrO (Angstrom Materials (Dayton, OH) was added to adsorb unbound candidate (10-minute incubation at 37° C.).
Samples were centrifuged for 5 minutes at 7,000×g. […] Running buffer was 1×TBE (supplier: Amresco/VWR; catalog #0658-20L, diluted using DI water). DNA ladder was 20/100 DNA ladder (IDT). Gels stained with Gel Star (Lonza, 50535) and imaged on a blue light transilluminator.

[3] = Thermal denaturation by differential scanning calorimetry (DSC)
Description: At least 10 nmole of each candidate was lyophilized, and resuspended in 1× Binding Buffer (50 mM HEPES, 100 mM KCl, 0.5 mM MgCl2, pH 7.3) on the day of binding assessment.
All analyses were conducted in 1× Binding Buffer and all water used was DEPC-treated. All analytes were resuspended first in DEPC-treated water then diluted to their final listed concentration in 1× Binding Buffer. Prior to loading of the DSC (GE Healthcare MicroCal VP-DSC), the samples were degassed at 25° C. for 10 minutes.

Molecule	Enrichment rate [1]	presence in the negative population [1]	presence in the counter-targets population [1]	response in qualitative PAGE assessment (elution from GrO with acyclovir vs counter-targets) [2]	further results
Cl [HCl]					effect on cytotoxic activity of MRB-CAR T cells of switching media pH from 7.4 to 6.7 (CHO-Target 1 cells; 8 μl of 1 M HCl about 3 hours after effector cells, E/T 1:1): increased
[Na+].[OH-] [NaOH]					effect on cytotoxic activity of MRB-CAR T cells of raising media pH from 6.7 to 7.4 (CHO-Target 1 cells; added about 3 hours after effector cells, E/T 1:1): inhibited the cytotoxic activity
Nc1nc2c(ncn2COCCO)c(=O)[nH]1 [acyclovir]					interaction with deoxyguanosine switch (deoxyguanosine switch): interacted weakly
Nc1nc2c(ncn2CCC(CO)CO)c(=O)[nH]1 [penciclovir]					interaction with deoxyguanosine switch (deoxyguanosine switch): interacted weakly
F1A-582: acyclovir aptamer candidate, most prevalent sequence of family 582; SEQ ID NO:108 (ACAGCTTAGCGTAATGGCTACTGACGCCGTCCAAACCTATTTACAGACT; RNA riboswitch aptamer, listed DNA covers non-stem region only, further chemistry not given here) [Candidate F1A-582]	greatest enrichment rate	did not perform well	did not perform well		
F1A-769: acyclovir aptamer candidate, most prevalent sequence of family 769; SEQ ID NO:147 (ACAGGTCAGCATAATGTGCTAGTGCGCCTTCAAACCTATTTAGAGACT; RNA riboswitch aptamer, listed DNA covers non-stem region only, further chemistry not given here) [Candidate F1A-769]	performing adequately	minimally detected		selective positive response	
F1A-795: acyclovir aptamer candidate, most prevalent sequence of family 795; SEQ ID NO:164 (ACAGCGAAGCATAATGGCTACTGACGCCCTCAAACCCTATTTGCAGACT; RNA riboswitch aptamer, listed DNA covers non-stem region only, further chemistry not given here) [Candidate F1A-795]		performing less well	not detected	selective positive response	thermal denaturation transition ([3]; absence of acyclovir, 7.2 μM F1A-795, 1X Binding Buffer): about 60 °C; binding of acyclovir to the aptamer domain ([3]; concluded from stabilizing effect in DSC): bound by acyclovir
F1A-935: acyclovir aptamer candidate, most prevalent sequence of family 935; SEQ ID NO:183 (ACAGGGTAGCATAATGGGCTACTTGACGCCTTCACCTATTTGTAGACT; RNA riboswitch aptamer, listed DNA covers non-stem region only, further chemistry not given here) [Candidate F1A-935]	performing adequately	not found	not detected		
F1A-946: acyclovir aptamer candidate, most prevalent sequence of family 946; SEQ ID NO:198 (ACAGCGTAGCATAATGGGCTGCAGACGCCGTCAAACCTATTTGCAGACT; RNA riboswitch aptamer, listed DNA covers non-stem region only, further chemistry not given here) [Candidate F1A-946]	performing adequately	not found	not detected	selective positive response	
F1A-961: acyclovir aptamer candidate; SEQ ID NO:220 (ACACCGTAGCATAATGGGCTACTGCCGCCGTCGACCTTTTGGAGACT; RNA riboswitch aptamer, listed DNA covers non-stem region only, further chemistry not given here) [Candidate F1A-961]		performing less well	show up to a small degree		
F1A-996: acyclovir aptamer candidate; SEQ ID NO:221 (ACAGGGTAGCATAATGGCTTAGGACGCCTTCAAACCTATCAAGACT; RNA riboswitch aptamer, listed DNA covers non-stem region only, further chemistry not given here) [Candidate F1A-996]		performing less well	show up to a small degree	selective positive response	
T1B: an anti-Target 1 MRB-CAR from the series of candidate MRB-CARs in Example 3 (protein) EVQLVQSGAEVKKPGATVKISCKVSGYSFWGATMNWIRQPPGKGLEWIGLIKPSNGGTSYNQKFKGRVTISADKSISTAYLQWSSLKASDTAMYYCAHGHYESYEAMDYWGQGTLVTVSSGGGGSGGGGSGGGGSDIQMTQSPSSLSASVGDRVTITCKASQDVVSAVAWYQQKPGQAPRLLIYWQDTRHTGVPSRFSGSGSGTEFTLTISSLQPDDFATYYCQEHFSPPLTFGQGTKVEIKFWVLVVVGGVLACYSLLVTVAFIIFWVRSKRSRLLHSDYMNMTPRRPGPTRKHYQAYAAARDFAAYRSRVKFSRSADAPAYQQGQNQLYNELNLGRREEYDVLDKRRGRDPEMGGKPRRKNPQEGLYNELQKDKMAEAYSEIGMKGERRRGKGHDGLYQGLSTATKDTYDALHMQALPPR					cytotoxic activity on CHO-Target 1 cells (CHO-Target 1 cells; pH 7.4, E/T 1:1): low
